Molecules are shown by their SMILES.

One data set concerns the target T1, hα7-wt nAChR (Homo sapiens, UniProt P36544).
T1 construct: expressed in transfected cells
The data set is described as follows: Ca2+ flux imaging (FLIPR) (Protocol A), PAM activity with choline as agonist. Type of data set: cell-based. The note with it: "<5" = no top plateau at maximal concentration. From the text: Stable expression in mammalian cells in general and rat GH4C1 cells in particular, of cDNA clones encoding the human α7 wild-type sequence (hα7-wt nAChR) and in which the coding region is placed downstream of a promoter results in the appearance of functional α7 nAChRs on the surface of the mammalian cells. This technique has provided a powerful means of assessing the function of α7 wild-type protein. Given the fact that the cation permeability of the α7 nicotinic receptor preferentially favours calcium, fluorescent imaging of Ca^2+ flux through the hα7-wt nAChR stably expressed in the GH4C1 cell line was used as a first means of assaying modulator activity of the compounds of the present invention.
• Hanks buffered saline solution (HBSS, Invitrogen, Belgium), supplemented with 10 mM HEPES (Invitrogen, Belgium), CaCl2 to a final concentration of 5 mM, 0.1% Bovine serum albumin (Sigma-Aldrich NV, Belgium), 2.5 mM probenecid (Sigma-Aldrich NV, Belgium). b) Calcium-Sensitive Dye—Fluo-4AM • Fluo-4AM (Molecular Probes, USA) was dissolved in DMSO containing 10% Pluronic acid (Molecular Probes, USA) to give a stock solution which was aliquoted and stored at −20° C. until later use. On the day of the experiment Fluo-4AM stock was defrosted and diluted in DMEM/F12 (Invitrogen, Belgium) to give a final concentration of 4 μM. c) 96-Well Plates • BD Biocoat poly-D-lysine 96-well black/clear plates (BD Biosciences, Belgium) d) Calcium Flux Measurement • A Fluorimetric Imaging Plate Reader (FLIPR, Molecular Devices Corporation, Sunnyvale, USA) was used to measure intracellular free-calcium flux signals Method
Monolayers of hα7-wt nAChR-expressing cells were grown in multi-well plates, in particular black-sided, transparent bottomed 96 well plates coated with poly-D-lysine for 24 hours prior to loading with a fluorescent calcium indicator, in a particular embodiment loading with fluo-3 or fluo-4AM for up to 90 minutes, in an even more particular embodiment loading with fluo-4AM for up to 90 minutes, and in a preferred embodiment loading with fluo-4AM for up to 60 minutes.
PAM activity was detected in real time by applying the compounds to be tested to the loaded cells along with a α7 nicotinic receptor agonist during constant monitoring of cellular fluorescence in a FLIPR. Compounds giving peak fluorescent responses greater than the response due to agonist alone, were considered to be α7 nAChR PAM's. In a particular embodiment, the α7 nicotinic receptor agonist was choline, a more particular embodiment choline applied at a sub-maximal concentration of 100 μM. In a further setting of the present invention the compounds to be tested were applied prior to the α7 nicotinic receptor agonist, in a particular embodiment up to 20 minutes prior to the agonist, a more particular embodiment up to 10 minutes prior to the agonist, and an even more particular embodiment 10 minutes prior to the agonist.
A control response to choline was calculated on each plate from the difference in peak in fluorescence in wells receiving either choline or assay buffer alone. Compounds of the present invention were tested at a concentration range from 0.1 μM to 50 μM. Compounds were considered to have an interesting activity when their efficacy was at least 500% when tested at the concentration where they have a maximal effect, typically between 0.1 μM and 50 μM (the efficacy of 100 μM choline was defined as 100% in the absence of a PAM). The compounds also have a potentiating effect on the response to choline when measured by whole-cell patch clamp electrophysiology in GH4C1 cells stably over-expressing the human wild-type α7 receptor.

T1 sequence (P36544 23-502): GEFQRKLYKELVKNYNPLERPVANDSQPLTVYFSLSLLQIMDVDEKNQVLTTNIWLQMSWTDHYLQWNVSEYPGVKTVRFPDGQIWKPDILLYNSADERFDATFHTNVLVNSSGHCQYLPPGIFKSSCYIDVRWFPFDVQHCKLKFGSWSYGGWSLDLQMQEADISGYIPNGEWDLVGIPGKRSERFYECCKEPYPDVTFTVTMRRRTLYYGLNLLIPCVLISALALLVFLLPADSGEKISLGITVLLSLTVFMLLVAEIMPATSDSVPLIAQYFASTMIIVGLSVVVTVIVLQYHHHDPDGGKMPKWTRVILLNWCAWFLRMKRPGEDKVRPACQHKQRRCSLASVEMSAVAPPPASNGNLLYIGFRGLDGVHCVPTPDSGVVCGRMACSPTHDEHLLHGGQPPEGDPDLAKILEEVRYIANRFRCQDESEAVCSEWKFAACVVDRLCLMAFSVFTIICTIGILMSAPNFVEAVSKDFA

`FCCn1nc(Nc2cc(F)cc(F)c2)nc1-c1ccnc(C2CC2)c1` [Compound 177] yielded a melting point of 150.3 °C. In addition, the EC50 on hα7-wt nAChR was 3.98 µM.
`CNC(=O)Cn1nc(Nc2cc(F)cc(F)c2)nc1-c1ccnc(NC)c1` [Compound 178] showed a melting point of 247 °C. Also, the EC50 at hα7-wt nAChR is > 10 µM.
The corresponding values for `COc1ccc(Cl)c(Nc2nc(-c3ccc4c(c3)OCCO4)n(CCC(=O)N(C)C)n2)c1` [Compound 196] are 134.7 to 136.7 °C and 3.16 µM.

These data come from US8143419B2, “Trisubstituted 1,2,4-triazoles” (Janssen Pharmaceutica N. V., priority 2006, dated 2012).
